Assays:
[1] = molecular target: T1, human IGF1R cytoplasmic domain (Homo sapiens, UniProt P08069); assay: IGF1R autophosphorylation inhibition, time resolved fluorescence (HTRF) assay; type: biochemical; conditions: 10 μM; read-out: IGF1R % inhib at 10 μM
T1 construct: The human IGF1R cytoplasmic domain was cloned; made in house; host or cells: SF21 insect cells (baculovirus)
How it was run: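 GST-tagged human IGF1R cytoplasmic domain from SF21 cells incubated with compound in 50 mM Hepes pH 7.5, 5 mM MnCl2, 50 mM NaCl, […] ATP. Autophosphorylation detected by HTRF (Eu-K anti-phosphotyrosine, XL665 anti-GST) after EDTA/KF stop; percentage inhibition versus no-compound control.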

[2] = test system: c-Src protein; assay: Src kinase phosphorylation of biotinylated cdc2 substrate, fluorescence (DELFIA); type: biochemical, human
Experimental: The inhibition of the Src kinase is evaluated by measuring the phosphorylation of the biotinylated cdc2 substrate (Pierce) detected by fluorescence (DELFIA) using an antiphosphotyrosine antibody labeled with Europium, in 96-well Wallac plates. The c-Src protein used is a recombinant human protein produced in Baculovirus, comprising the SH3 and SH2 and the catalytic domains. The enzyme, the substrate and the various concentrations of test compounds are placed in the well in a 50 mM Tris buffer containing 10 mM MgCl2. The reaction is initiated by adding 10 μM of ATP. After incubation for 60 minutes at 30° C., the reaction is stopped by adding 75 mM EDTA. 50 μl are taken from each well and transferred into a plate coated with streptavidin. After incubation for 30 minutes at 25° C., the wells are washed with a washing buffer (Wallac) and then the antiphosphotyrosine antibody (PY20-Europium [Perkin Elmer]) is added in a volume of 75 μl. The plate is incubated for 30 minutes at 25° C. and then an “Enhancer” solution (Wallac) is added before reading the fluorescence using a fluorimeter (Perkin Elmer). The background noise is evaluated in triplicate in wells containing the substrate and the antibody in the absence of enzyme. The activity of the enzyme is measured (in triplicate) in the wells containing all the reagents in the absence of compound. The inhibition of the Src activity is expressed as percentage inhibition of the activity of the control determined in the absence of compound. The compound PP2 (Calbiochem) is included at various concentrations in each experiment as an inhibition control.

[3] = molecular target: T2, human Tie2 (Homo sapiens, UniProt Q02763); assay: Tie2 phosphorylation of PLC, FlashPlate radioactivity assay; type: biochemical; conditions: read-out: TIE2 % inhib at 10 μM
T2 construct: amino acids of the intracellular domain 776-1124; made in house; host or cells: baculovirus expression system (vector pFastBacGT)
T2 sequence (Q02763 776-1124): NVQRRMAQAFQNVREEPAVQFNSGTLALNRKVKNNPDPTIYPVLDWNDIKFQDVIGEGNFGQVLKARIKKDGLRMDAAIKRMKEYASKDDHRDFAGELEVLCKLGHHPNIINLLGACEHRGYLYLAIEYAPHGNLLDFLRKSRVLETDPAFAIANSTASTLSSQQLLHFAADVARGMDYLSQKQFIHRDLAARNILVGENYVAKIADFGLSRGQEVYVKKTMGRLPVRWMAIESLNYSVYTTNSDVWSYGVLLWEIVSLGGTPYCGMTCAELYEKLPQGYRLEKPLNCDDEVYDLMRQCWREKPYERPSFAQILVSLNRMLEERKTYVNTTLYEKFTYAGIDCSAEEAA
Experimental: The coding sequence of human Tie2 corresponding to the amino acids of the intracellular domain 776-1124 was generated by PCR using the cDNA isolated from human placenta as model. This sequence was introduced into a baculovirus expression vector pFastBacGT in the form of a GST fusion protein.
The inhibitory effect of the molecules is determined in an assay of phosphorylation of PLC by Tie2 in the presence of GST-Tie2 purified to approximately 80% homogeneity. The substrate is composed of the SH2-SH3 fragments of PLC exprressed in the form of a GST fusion protein.
The kinase activity of Tie2 is measured in a 20 mM MOPS buffer, pH 7.2, containing 10 mM MgCl2, 10 mM MnCl2, 1 mM DTT and 10 mM of glycerophosphate. A reaction mixture composed of 70 μl of kinase buffer containing 100 ng of GST-Tie2 enzyme per well is placed in a FlashPlate 96-well plate kept on ice. 10 μl of the test molecule diluted in DMSO at a maximum concentration of 10% are then added. For a given concentration, each measurement is carried out in quadruplicate. The reaction is initiated by adding 20 μl of solution containing 2 μg of GST-PLC, 2 μM of cold ATP and 1 μCi of ^33P[ATP]. After incubation for 1 hour at 37° C., the reaction is stopped by adding 1 volume (100 μl) of 200 mM EDTA. After removing the incubation buffer, the wells are washed three times with 300 μl of PBS. The radioactivity is measured on a Wallac MicroBeta 1450.
The inhibition of the Tie2 activity is calculated and expressed as percentage inhibition compared to the control activity determined in the absence of compound.

T1 sequence (P08069 960-1367 limits assumed): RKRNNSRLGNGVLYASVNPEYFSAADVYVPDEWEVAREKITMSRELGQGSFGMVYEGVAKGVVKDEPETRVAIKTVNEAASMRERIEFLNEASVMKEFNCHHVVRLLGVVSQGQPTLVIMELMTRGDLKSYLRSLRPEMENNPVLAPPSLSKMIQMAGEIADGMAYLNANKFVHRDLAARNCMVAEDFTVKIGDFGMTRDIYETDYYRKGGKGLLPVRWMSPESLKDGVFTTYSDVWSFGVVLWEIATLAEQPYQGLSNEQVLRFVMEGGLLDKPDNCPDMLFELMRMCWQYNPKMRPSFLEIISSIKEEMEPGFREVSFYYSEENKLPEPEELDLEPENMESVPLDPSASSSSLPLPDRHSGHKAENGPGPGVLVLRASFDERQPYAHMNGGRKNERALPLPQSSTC

Row | inhibition at 10 µM [1] [%] | SRC % inhib at 10 μM [2] [%] | melting point [°C] | inhibition at 10 µM [3] [%] | Compound
1 | 77 | 18 | – | – | Cc1ccccc1S(=O)(=O)Nc1ccc2[nH]nc(-c3ccccc3)c2c1 [Example 132, 2-Methyl-N-(3-phenyl-1H-indazol-5-yl)-benzenesulfonamide]
2 | 81 | 46 | – | – | CN(C)c1ccc(-c2n[nH]c3ccc(NS(=O)(=O)c4ccccc4S(C)(=O)=O)cc23)cc1 [Example 63, N-[3-(4-Dimethylaminophenyl)-1H-indazol-5-yl]-2-methylsulfonylbenzenesulfonamide]
3 | 63 | 96 | 270 | – | CS(=O)(=O)c1ccccc1S(=O)(=O)Nc1ccc2[nH]nc(-c3cc4ccccc4s3)c2c1 [Example 65, N-(3-Benzo[b]thiophen-2-yl-1H-indazol-5-yl)-2-methylsulfonylbenzenesulfonamide]
4 | – | – | 245 | 22 | CS(=O)(=O)c1ccccc1S(=O)(=O)Nc1ccc2[nH]ncc2c1 [Example 13, 2-Methylsulfonyl-N-(1H-indazol-5-yl)benzenesulfonamide]
5 | 88 | 95 | 220 | – | CS(=O)(=O)c1ccccc1S(=O)(=O)Nc1ccc2[nH]nc(-c3cccc(N)c3)c2c1 [Example 62, N-[3-(3-Aminophenyl)-1H-indazol-5-yl]-2-methylsulfonylbenzenesulfonamide]
6 | 72 | 39 | – | – | Cc1cccc(S(=O)(=O)Nc2ccc3[nH]nc(-c4ccccc4)c3c2)c1 [Example 138, 3-Methyl-N-(3-phenyl-1H-indazol-5-yl)-benzenesulfonamide]
7 | 81 | 23 | – | – | O=[N+]([O-])c1ccccc1S(=O)(=O)Nc1ccc2[nH]nc(-c3ccccc3)c2c1 [Example 113, 2-Nitro-N-(3-phenyl-1H-indazol-5-yl)benzenesulfonamide]
8 | 40 | 24 | – | – | O=C(O)c1cccc(S(=O)(=O)Nc2ccc3[nH]nc(-c4ccccc4)c3c2)c1 [Example 133, 3-(3-Phenyl-1H-indazol-5-ylsulfamoyl)benzoic acid]
9 | 84 | 47 | – | – | O=S(=O)(Nc1ccc2[nH]nc(-c3ccccc3)c2c1)c1ccccc1 [Example 112, N-(3-Phenyl-1H-indazol-5-yl)benzenesulfonamide]
10 | 68 | 75 | – | – | O=S(=O)(Nc1ccc2[nH]nc(-c3ccccc3)c2c1)c1cc(F)cc(F)c1 [Example 158, 3,5-Difluoro-N-(3-phenyl-1H-indazol-5-yl)-benzenesulfonamide]
11 | 81 | 42 | – | – | O=S(=O)(Nc1ccc2[nH]nc(-c3ccccc3)c2c1)c1ccccc1C(F)(F)F [Example 109, N-(3-Phenyl-1H-indazol-5-yl)-2-trifluoromethylbenzene-sulfonamide]
12 | 56 | 39 | – | – | O=S(=O)(Nc1ccc2[nH]nc(-c3ccccc3)c2c1)c1ccc(F)cc1 [Example 117, 4-Fluoro-N-(3-phenyl-1H-indazol-5-yl)-benzenesulfonamide]
13 | 65 | 54 | – | – | O=S(=O)(Nc1ccc2[nH]nc(-c3ccccc3)c2c1)c1ccc(Cl)s1 [Example 135, 5-Chloro-N-(3-phenyl-1H-indazol-5-yl)thiophene-2-sulfonamide]
14 | 75 | 44 | – | – | N#Cc1cccc(S(=O)(=O)Nc2ccc3[nH]nc(-c4ccccc4)c3c2)c1 [Example 154, 3-Cyano-N-(3-phenyl-1H-indazol-5-yl)-benzenesulfonamide]
15 | – | – | – | 18 | CS(=O)(=O)c1ccccc1S(=O)(=O)Nc1ccc2[nH]nc(Cl)c2c1 [Example 1, N-(3-Chloro-1H-indazol-5-yl)-2-methylsulfonylbenzenesulfonamide]
16 | 51 | 36 | – | – | COc1ccc(OC)c(S(=O)(=O)Nc2ccc3[nH]nc(-c4ccccc4)c3c2)c1 [Example 131, 2,5-Dimethoxy-N-(3-phenyl-1H-indazol-5-yl)-benzenesulfonamide]
17 | 99 | 98 | 255 | – | CS(=O)(=O)c1ccccc1S(=O)(=O)Nc1ccc2[nH]nc(-c3ccc[nH]3)c2c1 [Example 60, 2-Methylsulfonyl-N-[3-(1H-pyrrol-2-yl)-1H-indazol-5-yl]benzenesulfonamide]
18 | 99 | 99 | – | – | CS(=O)(=O)c1ccccc1S(=O)(=O)Nc1ccc2[nH]nc(-c3cc4ccccc4[nH]3)c2c1 [Example 61, N-[3-(1H-Indol-2-yl)-1H-indazol-5-yl]-2-methylsulfonylbenzenesulfonamide]
19 | – | – | – | 15 | O=S(=O)(Nc1ccc2[nH]nc(Cl)c2c1)c1cccc(F)c1 [Example 3, N-(3-Chloro-1H-indazol-5-yl)-3-fluorobenzenesulfonamide]
20 | 81 | 44 | – | – | O=S(=O)(Nc1ccc2[nH]nc(-c3ccccc3)c2c1)c1ccccc1F [Example 134, 2-Fluoro-N-(3-phenyl-1H-indazol-5-yl)-benzenesulfonamide]
21 | 68 | 57 | – | – | COc1cccc(S(=O)(=O)Nc2ccc3[nH]nc(-c4ccccc4)c3c2)c1 [Example 156, 3-Methoxy-N-(3-phenyl-1H-indazol-5-yl)-benzenesulfonamide]
22 | 67 | 43 | – | – | O=S(=O)(Nc1ccc2[nH]nc(-c3ccccc3)c2c1)c1ccc(F)c(F)c1 [Example 152, 3,4-Difluoro-N-(3-phenyl-1H-indazol-5-yl)-benzenesulfonamide]
23 | 99 | 100 | – | – | CS(=O)(=O)c1ccccc1S(=O)(=O)Nc1ccc2[nH]nc(-c3nc4ccccc4[nH]3)c2c1 [Example 81, N-[3-(1H-Benzimidazol-2-yl)-1H-indazol-5-yl]-2-methylsulfonylbenzenesulfonamide]
24 | 80 | 45 | – | – | O=S(=O)(Nc1ccc2[nH]nc(-c3ccccc3)c2c1)c1cccs1 [Example 110, N-(3-Phenyl-1H-indazol-5-yl)-thiophene-2-sulfonamide]
25 | – | – | – | 33 | Cc1n[nH]c2ccc(NS(=O)(=O)c3ccccc3S(C)(=O)=O)cc12 [Example 10, 2-Methylsulfonyl-N-(3-methyl-1H-indazol-5-yl)benzenesulfonamide]
26 | – | – | 216 | 56 | O=S(=O)(Nc1ccc2[nH]nc(-c3ccccc3)c2c1)c1ccc(Cl)c(Cl)c1 [Example 8, 3,4-Dichloro-N-(3-phenyl-1H-indazol-5-yl)benzenesulfonamide]
27 | – | – | 120 | 29 | Cc1n[nH]c2ccc(NS(=O)(=O)c3cccc(F)c3)cc12 [Example 9, 3-Fluoro-N-(3-methyl-1H-indazol-5-yl)benzenesulfonamide]
28 | 96 | 72 | 242 | – | CS(=O)(=O)c1ccccc1S(=O)(=O)Nc1ccc2[nH]nc(-c3ccc(Cl)cc3)c2c1 [Example 30, N-[3-(4-Chlorophenyl)-1H-indazol-5-yl]-2-methylsulfonylbenzenesulfonamide]
